The text below walks through data of PubChem BioAssay AID200 (DTP/NCI, 2004).

The test relates to B6C3F1 mice, B16 melanoma ip, median survival T/C. Description: NCI In Vivo Anticancer Drug Screen. Data for tumor model B16 Melanoma (intraperitoneal) in B6C3F1 mice. The settings on record: endpoint: median survival time, higher = longer survival. Put shortly: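 Values are T/C ratios: the measurement in treated animals divided by that in vehicle-treated controls, using survival or tumor size in mice carrying transplantable tumors.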

[1] abbreviates: dose: 1.0 mg/kg/injection, schedule: Q01DX009 (ip), vehicle: saline.
The mark [2] stands for this setting: dose: 2.0 mg/kg/injection, schedule: Q01DX009 (ip), vehicle: saline.
Setting [3] is: dose: 8.0 mg/kg/injection, schedule: Q01DX009 (ip), vehicle: saline.
[4] abbreviates: dose: 12.5 mg/kg/injection, schedule: Q01DX009 (ip), vehicle: saline with Tween-80.
The mark [5] stands for this setting: dose: 25.0 mg/kg/injection, schedule: Q01DX009 (ip), vehicle: saline with Tween-80.
[6] abbreviates: dose: 50.0 mg/kg/injection, schedule: Q01DX009 (ip), vehicle: saline with Tween-80.
The mark [7] stands for this setting: dose: 100.0 mg/kg/injection, schedule: Q01DX009 (ip), vehicle: saline with Tween-80.
The mark [8] stands for this setting: dose: 0.5 mg/kg/injection, schedule: Q01DX009 (ip), vehicle: water.
Setting [9] is: dose: 1.5 mg/kg/injection, schedule: Q01DX009 (ip), vehicle: Klucel (hydroxypropylcellulose) (HPC).
The mark [10] stands for this setting: dose: 3.0 mg/kg/injection, schedule: Q01DX009 (ip), vehicle: Klucel (hydroxypropylcellulose) (HPC).
The mark [11] stands for this setting: dose: 0.75 mg/kg/injection, schedule: Q01DX009 (ip), vehicle: Klucel (hydroxypropylcellulose) (HPC).
Setting [12] is: dose: 50.0 mg/kg/injection, schedule: Q01DX009 (ip), vehicle: Klucel (hydroxypropylcellulose) (HPC).
The mark [13] stands for this setting: dose: 100.0 mg/kg/injection, schedule: Q01DX009 (ip), vehicle: Klucel (hydroxypropylcellulose) (HPC).
Where [14] appears, read: dose: 200.0 mg/kg/injection, schedule: Q01DX009 (ip), vehicle: saline with Tween-80.

Several values for one entry are separate records, joined by “and”; a condition that tells them apart may be missing. Equal values may be shown once. Inconclusive results and toxic doses are left out.

Turning to `C1CN(P2(N3CC3)=NP(N3CC3)(N3CC3)=NP(N3CC3)(N3CC3)=N2)CCO1` (configuration not stated), the T/C reads like this: under setting [1], 87 % of control and 96 % of control; (dose: 1.0 mg/kg/injection, schedule: Q02DX009 (ip), vehicle: saline) 88 % of control and 106 % of control; under setting [2], 87 % of control and 105 % of control; (dose: 2.0 mg/kg/injection, schedule: Q02DX009 (ip), vehicle: saline) 114 % of control and 92 % of control; (dose: 4.0 mg/kg/injection, schedule: Q01DX009 (ip), vehicle: saline) 101 % of control; (dose: 4.0 mg/kg/injection, schedule: Q02DX009 (ip), vehicle: saline) 103 % of control. For the same compound, the T/C is 110 % of control under setting [3]; 109 % of control and 121 % of control (dose: 8.0 mg/kg/injection, schedule: Q02DX009 (ip), vehicle: saline); 179 % of control (dose: 16.0 mg/kg/injection, schedule: Q01DX009 (ip), vehicle: saline); 169 % of control (dose: 16.0 mg/kg/injection, schedule: Q02DX009 (ip), vehicle: saline); 182 % of control and 205 % of control (dose: 32.0 mg/kg/injection, schedule: Q01DX009 (ip), vehicle: saline).

`O=C(Nc1ccccc1C(=O)O)c1cc([N+](=O)[O-])cc([N+](=O)[O-])c1`: the T/C is 92 % of control under setting [4], 100 % of control under setting [5], 97 % of control under setting [6] and 96 % of control under setting [7].

For the compound `CC[C@]1(O)C[C@H]2CN(CCc3c([nH]c4ccccc34)[C@@](C(=O)OC)(c3cc4c(cc3OC)N(C=O)[C@H]3[C@@](O)(C(=O)OC)[C@H](OC(C)=O)[C@]5(CC)C=CCN6CC[C@]43[C@@H]65)C2)C1`, the T/C reads like this: (dose: 0.06 mg/kg/injection, schedule: Q01DX009 (ip), vehicle: saline) 160 % of control; (dose: 0.12 mg/kg/injection, schedule: Q01DX009 (ip), vehicle: saline) 159 % of control and 176 % of control; (dose: 0.25 mg/kg/injection, schedule: Q01DX009 (ip), vehicle: saline) 171 % of control and 196 % of control; (dose: 0.5 mg/kg/injection, schedule: Q01DX009 (ip), vehicle: saline) 190 % of control; under setting [8], 108 % of control; (dose: 31.25 micrograms/kg/injection, schedule: Q01DX009 (ip), vehicle: water) 154 % of control. In addition, the T/C runs as follows: (dose: 62.5 micrograms/kg/injection, schedule: Q01DX009 (ip), vehicle: water) 186 % of control; (dose: 125.0 micrograms/kg/injection, schedule: Q01DX009 (ip), vehicle: water) 193 % of control; (dose: 250.0 micrograms/kg/injection, schedule: Q01DX009 (ip), vehicle: water) 227 % of control.

In the case of `CC(C)(C)OC(=O)NC(Cc1c[nH]c2ccccc12)C(=O)O` (configuration not stated), the T/C runs as follows: (dose: 100.0 mg/kg/injection, schedule: Q01DX009 (ip), vehicle: distilled water + alcohol) 94 % of control; (dose: 200.0 mg/kg/injection, schedule: Q01DX009 (ip), vehicle: distilled water + alcohol) 94 % of control.

Turning to `COC12C(COC(N)=O)C3=C(C(=O)C(C)=C(N)C3=O)N1CC1C2N1C` (configuration not stated), the T/C under setting [1] is 112 % of control and 99 % of control; the T/C under setting [2] is 88 % of control; the T/C under setting [3] is 111 % of control and 89 % of control.

Take `Cc1c2ccncc2c(C)c2c1[nH]c1ccccc12`: the T/C is 106 % of control (dose: 1.25 mg/kg/injection, schedule: Q01DX009 (ip), vehicle: distilled water + Tween-80); 105 % of control (dose: 1.25 mg/kg/injection, schedule: Q01DX009 (ip), vehicle: water); 117 % of control (dose: 2.5 mg/kg/injection, schedule: Q01DX009 (ip), vehicle: distilled water + Tween-80); 104 % of control (dose: 2.5 mg/kg/injection, schedule: Q01DX009 (ip), vehicle: water); 117 % of control (dose: 5.0 mg/kg/injection, schedule: Q01DX009 (ip), vehicle: water); 151 % of control (dose: 10.0 mg/kg/injection, schedule: Q01DX009 (ip), vehicle: distilled water + Tween-80). Besides, the T/C (dose: 20.0 mg/kg/injection, schedule: Q01DX009 (ip), vehicle: distilled water + Tween-80) was 173 % of control.

Consider `COc1cccc2c1C(=O)c1c(O)c3c(c(O)c1C2=O)C[C@@](O)(C(=O)CO)C[C@@H]3OC1CC(NC(=O)C(N)CC(C)C)C(O)C(C)O1` (some centres not stated), for which the T/C (dose: 6.25 mg/kg/injection, schedule: Q01DX001 (ip), vehicle: saline) is 192 % of control; the T/C (dose: 12.5 mg/kg/injection, schedule: Q01DX001 (ip), vehicle: saline) is 192 % of control; the T/C (dose: 25.0 mg/kg/injection, schedule: Q01DX001 (ip), vehicle: saline) was 269 % of control; the T/C (dose: 50.0 mg/kg/injection, schedule: Q01DX001 (ip), vehicle: saline) was 183 % of control.

Regarding `COc1cccc2c1C(=O)c1c(O)c3c(c(O)c1C2=O)C[C@@](O)(C(C)=O)C[C@@H]3OC1CC(N2CCCCC2)C(O)C(C)O1` (some centres not stated), the T/C is 105 % of control (dose: 0.78 mg/kg/injection, schedule: Q01DX001 (ip), vehicle: water); 115 % of control and 121 % of control (dose: 1.56 mg/kg/injection, schedule: Q01DX001 (ip), vehicle: water); 116 % of control and 121 % of control (dose: 3.12 mg/kg/injection, schedule: Q01DX001 (ip), vehicle: water).

Regarding `COC1CC2C=C(C)/C=C/C=C/C(=O)NC(c3ccccc3)C/C=C/CCC(O)CC(=O)C2=C1O` (configuration not stated), the T/C under setting [9] is 108 % of control; the T/C under setting [10] is 110 % of control and 119 % of control and 123 % of control; the T/C (dose: 3.13 mg/kg/injection, schedule: Q01DX009 (ip), vehicle: Klucel (hydroxypropylcellulose) (HPC)) was 104 % of control; the T/C (dose: 6.25 mg/kg/injection, schedule: Q01DX009 (ip), vehicle: Klucel (hydroxypropylcellulose) (HPC)) was 109 % of control.

For `O=C1C2C3C=CC(C2C(=O)N1CO)C1C2C(=O)N(CO)C(=O)C2C31` (configuration not stated), the T/C runs as follows: (dose: 6.25 mg/kg/injection, schedule: Q01DX009 (ip), vehicle: water) 102 % of control; (dose: 12.5 mg/kg/injection, schedule: Q01DX009 (ip), vehicle: water) 109 % of control; (dose: 25.0 mg/kg/injection, schedule: Q01DX009 (ip), vehicle: water) 113 % of control.

On to `C=C(C)C(=O)OCC12CCC(C)=CC1OC1C(O)C(OC(=O)CCl)C2(C)C12CO2` (configuration not stated), for which the T/C by setting is: under setting [8], 163 % of control; (dose: 1.0 mg/kg/injection, schedule: Q01DX009 (ip), vehicle: water) 163 % of control; (dose: 2.0 mg/kg/injection, schedule: Q01DX009 (ip), vehicle: water) 159 % of control.

Consider `CC1=CCC[C@@H]2C1(C)CCC(C)[C@@]2(C)CC1=CC(=O)C=CC1=O` (some centres not stated), for which the T/C by setting is: under setting [11], 93 % of control; (dose: 1.25 mg/kg/injection, schedule: Q01DX009 (ip), vehicle: Klucel (hydroxypropylcellulose) (HPC)) 95 % of control.

For `C/C(=N\N=C(/[Se])N1CC2CCC(CC2)C1)c1ccccn1`, the T/C is 112 % of control and 92 % of control and 108 % of control under setting [11]; 111 % of control and 99 % of control under setting [9]; 115 % of control and 100 % of control under setting [10]; 120 % of control and 93 % of control and 100 % of control (dose: 6.0 mg/kg/injection, schedule: Q01DX009 (ip), vehicle: Klucel (hydroxypropylcellulose) (HPC)).

Take `NC(Cc1ccc(O)cc1)C(=O)O` (configuration not stated): the T/C runs as follows: under setting [4], 102 % of control; under setting [5], 113 % of control; under setting [12], 120 % of control; under setting [6], 113 % of control; under setting [13], 99 % of control; under setting [7], 103 % of control. Moreover, the T/C is 109 % of control (dose: 200.0 mg/kg/injection, schedule: Q01DX009 (ip), vehicle: Klucel (hydroxypropylcellulose) (HPC)); 98 % of control under setting [14]; 96 % of control (dose: 400.0 mg/kg/injection, schedule: Q01DX009 (ip), vehicle: Klucel (hydroxypropylcellulose) (HPC)); 103 % of control (dose: 400.0 mg/kg/injection, schedule: Q01DX009 (ip), vehicle: saline with Tween-80).

Take `Cc1ccc(Cl)c2ccccc12`: the T/C by setting is: under setting [4], 101 % of control and 104 % of control; under setting [5], 100 % of control and 101 % of control and 104 % of control; under setting [6], 101 % of control and 105 % of control and 107 % of control; under setting [7], 94 % of control and 98 % of control; under setting [14], 94 % of control.

For `Cn1cc(C2NC(=O)c3ccccc3N2)c2ccccc21` (configuration not stated), the T/C is, setting by setting: (dose: 25.0 mg/kg/injection, schedule: Q01DX009 (ip), vehicle: Klucel (hydroxypropylcellulose) (HPC)) 109 % of control and 96 % of control; under setting [12], 115 % of control and 106 % of control; under setting [13], 123 % of control.
